# Data reported in US4102884A, “14 β-Hydroxy 3-deoxycardenolides” (priority 1975, dated 1978).
# “Also recorded” adds a separate entry of the source. Read-outs that look alike come from different tables or passages of the source.
# Columns and labels:
# ATP-ase = ATP-ase inhibition, methods of Okita et al (1973) and Kupchan et al (1964); type: biochemical, guinea pigs (brain); design: ATP-ase inhibition, % reversibility of inhibition: concentration or dose not given beside the values; settings: for ATP-ase inhibition, % reversibility of inhibition / ATP-ase inhibition, % inhibition at a 1×10^-4 molar concentration: Table 2; for ATP-ase inhibition, comparison in words: compared with 3-deoxycannogenol and digoxin, or acetyl-strophanthidin
# Method: (§1) The inotropic effects have been determined with spontaneously beating atrial preparations derived from guinea pigs. The ATP-ase was obtained from the brain of the same animal and the methods of Okita et al (1973) and of Kupchan et al (1964) were employed. The lethal dose in cats was determined by the method of Chen.
# [1] = test system: spontaneously beating atrial preparations; assay: Inotropic effect (increase in contractility) in spontaneously beating atrial preparations; design: species or system guinea pigs; settings: for EC (30% increase in contractility) / EC (50% increase in contractility) / EC (80% increase in contractility): Cavia porcellus; for EC (30% increase in contractility): read-out: Molar concentration causing 30% increase in contractility; for EC (50% increase in contractility): read-out: Molar concentration causing 50% increase in contractility; for EC (80% increase in contractility): read-out: Molar concentration causing 80% increase in contractility; for inotropic effect, comparison in words: compared with digoxin and/or 3-deoxycannogenol; for arrhythmogenicity relative to digoxin, in words: inotropic tests
# Method: as §1
# cats [2] = assay: Lethal dose in cats, method of Chen; type: in vivo; settings: compared with digoxin
# Method: as §1
# [3] = Lipophilicity (statement in words); type: physicochemical
# cats [4] = assay: Emetic effects in cats, intravenous; type: in vivo; settings: intravenous doses amounting to 1/10 and 1/100 of the lethal dose
# heart muscle = test system: heart muscle; design: species or system guinea pigs; settings: decreasing order of number of washings; inotropic tests
# Method: as §1
# heart = settings: literature; cited from earlier work
# [5] = cited from earlier work
# [6] = Table 2, preliminary biological tests, 30%
# [7] = Table I / Example 45, guinea pig atria
smiles,measurement,setting,value
C[C@]12CC[C@H]3[C@@H](CC[C@@H]4C=CCC[C@@]43COC=O)[C@@]1(O)CC[C@@H]2C1=CC(=O)OC1,"ATP-ase inhibition, % reversibility of inhibition",ATP-ase,84%
same,"ATP-ase inhibition, % inhibition at a 1×10^-4 molar concentration",ATP-ase,41%
C[C@]12CC[C@H]3[C@@H](CC[C@H]4CCCC[C@@]43COC=O)[C@@]1(O)CC[C@@H]2C1=CC(=O)OC1,"ATP-ase inhibition, % reversibility of inhibition",ATP-ase,95%
same,"ATP-ase inhibition, % inhibition at a 1×10^-4 molar concentration",ATP-ase,42%
same,EC (30% increase in contractility),[1]; [6],50 µM
C[C@]12CC[C@H]3[C@@H](CC[C@H]4C=CCC[C@@]43CO)[C@@]1(O)CC[C@@H]2C1=CC(=O)OC1,"ATP-ase inhibition, % reversibility of inhibition",ATP-ase,81%
same,"ATP-ase inhibition, % inhibition at a 1×10^-4 molar concentration",ATP-ase,63%
same,Molar concentration causing 30% increase in contractility,[1]; [6],inactive
"C[C@]12CC[C@H]3[C@@H](CC[C@@H]4CCCC[C@@]43CO)[C@@]1(O)CC[C@@H]2C1=CC(=O)OC1 [3-deoxycannogenol, 19-hydroxy-3-deoxydigitoxigenin]","toxicity relative to digoxin (lethal dose), in words",cats [2]; cats,substantially lower than that of digoxin; also recorded: less than half as toxic as digoxin
same,"therapeutic index, in words",cats [2],better therapeutic index
same,"lipophilicity, in words",[3],considerably more lipohilic than the 19-oxygenated cardenolides obtained from natural sources
same,emetic effects,cats [4],no emetic effects
same,number of washings to remove the compound from the bath / ease of removal,heart muscle,"more readily removed from the bath, containing the heart muscle, by repeated washing, than digoxin and less readily than the more polar strophanthidin 3-acetate; also recorded: digitoxin > digoxin > 3-deoxycannogenol > 14,19-dihydroxy-5β,14β-carda-3,20(22)-dienolide > strophanthidin 3-acetate"
same,"dissociation of inotropic activity from ATP-ase inhibition and lethality, in words",[1],strong dissociation of inotropic activity from ATP-ase inhibition and lethality
same,EC (50% increase in contractility),[1]; [7],1.1 µM
same,EC (30% increase in contractility),"[1]; Table I, guinea pig atria, 30%",0.72 µM
same,EC (80% increase in contractility),"[1]; Table I, guinea pig atria",1.95 µM
same,"arrhythmia, in words",[1]; at doses causing an increase of 90% of contractile force,no arrhythmia were observed
same,"inotropic effect, comparison in words",[1],considerably more strongly than digoxin; also recorded: strong inotropic effect
same,"arrhythmogenicity relative to digoxin, in words",[1],considerably less arrhythomogenic than digoxin
same,times more inotropic than digoxin,"[1]; molar basis, relative to digoxin",2-4 times
"C[C@]12CCCC[C@H]1CC[C@@H]1[C@@H]2CC[C@]2(C)[C@@H](C3=CC(=O)OC3)CC[C@]12O [3-deoxydigitoxigenin, 14-hydroxy-5β,14β-card-20(22)-enolide]","cardiac activity, in words",heart,significantly less active than digitoxigenin
C[C@]12CCCC[C@H]1CC[C@@H]1[C@@H]2C[C@@H](O)[C@]2(C)[C@@H](C3=CC(=O)OC3)CC[C@]12O [3-deoxydigoxigenin],"ATP-ase inhibition, comparison in words",ATP-ase,comparable biological and inotropic effects and the ATP-ase inhibition as the 19-deoxygenated steroid acetyl-strophanthidin
same,IC50,"ATP-ase; guinea pig brain ATP-ase, read-out: Molar concentration causing 50% ATP-ase inhibition",68 µM
same,EC (50% increase in contractility),[1]; [7],7.6 µM
same,"inotropic effect, comparison in words",[1],comparable biological and inotropic effects
same,"arrhythmogenicity relative to digoxin, in words",[1],much less arrhythomogenic relative to the anitropic activity than digoxin
"C[C@]12CC[C@H]3[C@@H](CC[C@@H]4C=CCC[C@@]43CO)[C@@]1(O)CC[C@@H]2C1=CC(=O)OC1 [14,19-dihydroxy-5β,14β-carda-3,20(22)-dienolide]",number of washings to remove the compound from the bath / ease of removal,heart muscle,"digitoxin > digoxin > 3-deoxycannogenol > 14,19-dihydroxy-5β,14β-carda-3,20(22)-dienolide > strophanthidin 3-acetate"
same,"toxicity relative to digoxin, in words","ATP-ase; basis not stated, only ATP-ase inhibition tabulated",appears to be less toxic than digoxin
same,"ATP-ase inhibition, comparison in words",ATP-ase,generally between those of 3-deoxycannogenol and digoxin
same,EC (50% increase in contractility),[1]; [7],2.8 µM
same,EC (30% increase in contractility),"[1]; Table I, guinea pig atria, 30%",2.2 µM
same,EC (80% increase in contractility),"[1]; Table I, guinea pig atria",4 µM
same,"inotropic effect, comparison in words",[1],generally between those of 3-deoxycannogenol and digoxin
same,"inotropic effect, comparison in words",[1]; listed as 3(4)-anhydrocannogenol,"greater inotropic activity than digoxin, though it is less active than 3-deoxycannogenol"
same,"arrhythmogenicity relative to digoxin, in words",[1],considerably less arrhythomogenic than digoxin
"C[C@]12CC[C@H]3[C@@H](CC[C@@H]4CCCC[C@@]43COC=O)[C@@]1(O)CC[C@@H]2C1=CC(=O)OC1 [19-formate of 3-deoxycannogenol, 19-formyloxy-14-hydroxy-5β,14β-card-20(22)-enolide]","lipophilicity, in words",[3],more lipophilic
same,"inotropic effect, comparison in words",[1],substantial inotropic activity which equals about that of digoxin
same,"inotropic effect, comparison in words",[1]; listed as 19-formate ester of 3-deoxycannogenol,less active than 3-deoxycannogenol
"C[C@]12CC[C@@H]3[C@H]4CCCC[C@H]4CC[C@H]3[C@@]1(O)CC[C@@H]2C1=CC(=O)OC1 [19-nor analog, 14-hydroxy-19-nor-5β,14β-card-20(22)-enolide]","heart-activity, in words",[1],substantial heart-activities
"C[C@]12CC[C@H]3[C@@H](CC[C@@H]4CCCC[C@@]43CO)[C@@]1(O)CC[C@@H]2C1COC(=O)C1 (stereo partly drawn) [20(22)-dihydro analog, 3-deoxy-20.xi.,22-dihydrocannogenol]","heart-activity, in words",[1],substantial heart-activities
CO[C@H]1C[C@H](O[C@H]2CC[C@]3(C)[C@H]4CC[C@]5(C)[C@@H](C6=CC(=O)OC6)CC[C@]5(O)[C@@H]4CC[C@]3(O)C2)O[C@H](C)[C@H]1O [cymaroside of 5β-hydroxydigitoxigenin],"cardiac activity, in words",heart,nearly twice as active as the cymaroside of digitoxigenin
"C[C@H]1O[C@@H](O[C@H]2[C@@H](O)C[C@H](O[C@H]3[C@@H](O)C[C@H](O[C@H]4CC[C@@]5(C)[C@H](CC[C@@H]6[C@@H]5CC[C@]5(C)[C@@H](C7=CC(=O)OC7)CC[C@]65O)C4)O[C@@H]3C)O[C@@H]2C)C[C@H](O)[C@@H]1O [digitoxin, reference compound]",number of washings to remove the compound from the bath / ease of removal,heart muscle,"digitoxin > digoxin > 3-deoxycannogenol > 14,19-dihydroxy-5β,14β-carda-3,20(22)-dienolide > strophanthidin 3-acetate"
C[C@]12CC[C@H]3[C@@H](CC[C@@H]4CCCC[C@@]43COC=O)[C@@]1(O)CC[C@@H]2C1=CC(=O)OC1 [drawing 19],EC (30% increase in contractility),[1]; [6],2.9 µM
C[C@]12CC[C@H]3[C@@H](CC[C@@H]4CCCC[C@@]43CO)[C@@]1(O)CC[C@@H]2C1COC(=O)C1 (stereo partly drawn) [drawing 21],"ATP-ase inhibition, % reversibility of inhibition",ATP-ase,57%
same,"ATP-ase inhibition, % inhibition at a 1×10^-4 molar concentration",ATP-ase,45%
same,EC (30% increase in contractility),[1]; [6],18.5 µM
same,EC (50% increase in contractility),"[1]; Table 2, preliminary biological tests",40 µM
C[C@]12CC[C@@H]3[C@H]4CCCC[C@H]4CC[C@H]3[C@@]1(O)CC[C@@H]2C1=CC(=O)OC1 [drawing 23],"ATP-ase inhibition, % reversibility of inhibition",ATP-ase,76%
same,"ATP-ase inhibition, % inhibition at a 1×10^-4 molar concentration",ATP-ase,59%
C[C@@H]1O[C@@H](O[C@H]2C[C@@H](O)[C@]3(CO)[C@H]4[C@H](O)C[C@]5(C)[C@@H](C6=CC(=O)OC6)CC[C@]5(O)[C@@H]4CC[C@]3(O)C2)[C@H](O)[C@H](O)[C@H]1O [ouabain],"intravenous activity, onset and duration, in words",[5],"high intravenous activity, fast onset and short duration of activity"
same,"oral activity, in words",[5],rather low oral activity
C[C@@H]1O[C@@H](OC2CC[C@@]3(CO)[C@@H](CC[C@@H]4[C@@H]3[C@@H](O)C[C@]3(C)[C@@H](C5=CC(=O)OC5)CC[C@]43O)C2)[C@H](O)[C@H](O)[C@H]1O (stereo partly drawn) [panoside],"cardiac activity, in words",heart,high cardiac activity; also recorded: highly potent
CC(=O)O[C@@H]1C[C@]2(O)[C@H](CC[C@]3(C)[C@@H](c4ccc(=O)oc4)CC[C@@]32O)[C@@]2(C)CC[C@H](O)C=C12 [scillirosidin],"cardiac activity, in words",heart,high cardiac activity
CC(=O)O[C@H]1CC[C@]2(C=O)[C@H]3CC[C@]4(C)[C@@H](C5=CC(=O)OC5)CC[C@]4(O)[C@@H]3CC[C@]2(O)C1 [strophanthidin 3-acetate],"intravenous activity, onset and duration, in words",[5],"high intravenous activity, fast onset and short duration of activity"
same,"oral activity, in words",[5],rather low oral activity
same,number of washings to remove the compound from the bath / ease of removal,heart muscle,"digitoxin > digoxin > 3-deoxycannogenol > 14,19-dihydroxy-5β,14β-carda-3,20(22)-dienolide > strophanthidin 3-acetate"
